Measurements reported in publication PMC6009919, “Newer human inosine 5′-monophosphate dehydrogenase 2 (hIMPDH2) inhibitors as potential anticancer agents” (Journal of Enzyme Inhibition and Medicinal Chemistry, 2018).
Counter-ions that a name gives are not always drawn. Like-named read-outs stand apart in the source and are kept apart here.

Assays:
[1] = tested on: MDA-MB-231 (breast adenocarcinoma); assay: Cell viability (MTT assay), MDA-MB-231; type: cell-based; conditions: for IC50: MTT, 48-h incubation, triplicate, read-out: Cytotoxicity IC50 (μM) ± SD, MDA-MB-231
Procedure: (§1) Cancer cell lines such as MDA-MB-231 (breast adenocarcinoma), DU145 (prostate carcinoma) and U87 MG (glioblastoma astrocytoma) were purchased from National Centre for Cell Sciences (NCCS) (Pune, India). Cytotoxic activity of compounds (>80% hIMPDH2 inhibition at 10 μM) was evaluated using colorimetric MTT assay on the above-mentioned cell lines. Briefly, cells were grown in DMEM media supplemented with foetal bovine serum (FBS) 10% and penicillin–streptomycin (50 U/ml, 50 µg/ml) at 37 °C, CO2 (5%) and air (95%). Logarithmically, growing cells were seeded using 96-well plate at different concentrations of the test compounds ranging from 0.01 to 100 μM (seeding density: MDA-MB-231: 10,000 cells/well, DU145: 8000 cells/well, U87 MG: 5000 cells/well). […] Each dilution of test compound was added in triplicate. Following 48-h incubation with the compounds, cells were incubated with MTT reagent (5 mg/ml) for 4 h, and then 100 μl of DMSO was added to dissolve formazan crystals. The absorbance was then measured at 540 nm and 630 nm (background scan) using EPOCH 2 BioTek microplate reader. The IC50 values for the tested compounds were calculated and expressed in μM using mean of triplicate readings.

[2] = tested on: DU145 (prostate carcinoma); assay: Cell viability (MTT assay), DU145; type: cell-based; conditions: for IC50: MTT, 48-h incubation, triplicate, read-out: Cytotoxicity IC50 (μM) ± SD, DU145
Procedure: as §1

hIMPDH2 = target: T1, hIMPDH2 (Homo sapiens, UniProt P12268); assay: In vitro hIMPDH2 inhibition assay; type: biochemical; conditions: for hIMPDH2 enzyme % Inhibition / inhibition at 10 µM: at 10 µM, ± SD; for IC50: triplicate, determined when inhibition >70% at 10 µM, read-out: hIMPDH2 enzyme IC50 (µM) ± SD; for inhibition at 10 µM: read-out: hIMPDH2 enzyme % Inhibition
T1 construct: purchased NovoCIB SAS (Lyon, France)
Procedure: The enzyme (hIMPDH2) was purchased from NovoCIB SAS (Lyon, France). […] The assay was performed in a 200 µl final volume in 96-well UV plates (Tarsons, 980040, Tarsons Products Pvt. Ltd., Kolkata, India) with a reaction buffer composed of 100 mM Tris–HCl (pH 8.6), 100 mM KCl and 5 mM DTT, 4% v/v DMSO plus or minus test compound and 0.15 mU of purified hIMPDH2 enzyme per well (from 1.5 mg/ml stock solution). […] The reaction was initiated by the addition of (substrate buffer) 0.2 mM of IMP and 0.2 mM of NAD^+ and the assay was allowed to proceed at 37 °C for 45 min. The generated NADH was measured by reading the absorbance at 340 nm. […] The MPA (10 µM) was used as a positive control and DMSO as a vehicle control. […] Enzyme inhibition and IC50 values were expressed in % inhibition and μM, respectively.

[3] = tested on: U87 MG (glioblastoma astrocytoma); assay: Cell viability (MTT assay), U87 MG; type: cell-based; conditions: for IC50: MTT, 48-h incubation, triplicate, read-out: Cytotoxicity IC50 (μM) ± SD, U87 MG
Procedure: as §1

[4] = hPBMC proliferation assay; type: cell-based; conditions: human, human peripheral blood mononuclear cells (hPBMC), read-out: % cell viability
Description: Higher lipophilicity and masking of the –COOH in 1 could possibly be responsible for this observation since usually acids are prevented from entering in the CNS.[35] […] The possibility of the title compounds behaving as prodrugs could be minute due to the difficulty in hydrolysing the amide linkage inside cells and release of the active form “MPA”.

hIMPDH2 enzyme % Inhibition (hIMPDH2) [%]	IC50 (hIMPDH2) [µM]	inhibition at 10 µM (hIMPDH2) [%]	Compound	further results
81.36 ± 1.95	0.57 ± 0.11		COc1c(C)c2c(c(O)c1C/C=C(\C)CCC(=O)NCc1ccc(Cl)cc1)C(=O)OC2 [Compound 20]	IC50 [1]: 4.1 ± 0.23 µM; IC50 [2]: 2.69 ± 0.11 µM; IC50 [3]: 7.31 ± 0.17 µM
		99.9 ± 1.2	COc1c(C)c2c(c(O)c1C/C=C(\C)CCC(=O)O)C(=O)OC2 [Compound 1, Mycophenolic acid, reference compound]	IC50 ([1]; Homo sapiens, MDA-MB-231): 4.38 ± 0.06 µM; IC50 ([2]; Homo sapiens, DU-145): 2.94 ± 0.09 µM; IC50 ([3]; Homo sapiens, U-87 MG): 10.7 ± 0.21 µM; viability [4]: 63%
		59.4 ± 1.81	COc1c(C)c2c(c(O)c1C/C=C(\C)CCC(=O)NCc1ccccn1)C(=O)OC2 [Compound 22]	
87.09 ± 4.54	0.51 ± 0.08		COc1c(C)c2c(c(O)c1C/C=C(\C)CCC(=O)NCc1ccc3c(c1)OCO3)C(=O)OC2 [Compound 25]	IC50 [1]: 1.86 ± 0.16 µM; IC50 [2]: 2.53 ± 0.15 µM; IC50 [3]: 8.16 ± 0.27 µM
			COc1cccc2c1C(=O)c1c(O)c3c(c(O)c1C2=O)C[C@@](O)(C(=O)CO)C[C@@H]3O[C@H]1C[C@H](N)[C@H](O)[C@H](C)O1 [Doxorubicin HCl, reference compound]	IC50 ([1]; Homo sapiens, MDA-MB-231): 0.54 ± 0.08 µM; IC50 ([2]; Homo sapiens, DU-145): 0.21 ± 0.06 µM; IC50 ([3]; Homo sapiens, U-87 MG): 0.11 ± 0.02 µM
	0.33 ± 0.11	96.1 ± 2.51	COc1ccc(CNC(=O)CC/C(C)=C/Cc2c(O)c3c(c(C)c2OC)COC3=O)cc1 [Compound 18]	IC50 ([1]; Homo sapiens, MDA-MB-231): 2.42 ± 0.11 µM; IC50 ([2]; Homo sapiens, DU-145): 1.8 ± 0.07 µM; IC50 ([3]; Homo sapiens, U-87 MG): 5.26 ± 0.18 µM
	0.5 ± 0.18	84 ± 2.13	COc1c(C)c2c(c(O)c1C/C=C(\C)CCC(=O)NCc1ccccc1C)C(=O)OC2 [Compound 23]	IC50 ([1]; Homo sapiens, MDA-MB-231): 0.77 ± 0.04 µM; potency relative to MPA, MDA-MB-231 ([1]; fold vs MPA): five-fold more potent than MPA; IC50 ([2]; Homo sapiens, DU-145): 1.28 ± 0.04 µM; IC50 ([3]; Homo sapiens, U-87 MG): 4.66 ± 0.07 µM
54.84 ± 1.15			COc1ccc(NC(=O)CC/C(C)=C/Cc2c(O)c3c(c(C)c2OC)COC3=O)cc1 [Compound 28]	
67.18 ± 4.16			COc1c(C)c2c(c(O)c1C/C=C(\C)CCC(=O)NCc1ccco1)C(=O)OC2 [Compound 17]	
		59.1 ± 1.91	COc1c(C)c2c(c(O)c1C/C=C(\C)CCC(=O)N[C@@H](C)c1ccccc1)C(=O)OC2 [Compound 14, (S)(E)-6–(4-hydroxy-6-methoxy-7-methyl-3-oxo-1,3-dihydroisobenzofuran-5-yl)-4-methyl-N-(1-phenylethyl)hex-4-enamide]	
93.62 ± 3.17	0.48 ± 0.02		COc1c(C)c2c(c(O)c1C/C=C(\C)CCC(=O)NCCCCc1ccccc1)C(=O)OC2 [Compound 24]	IC50 ([1]; Homo sapiens, MDA-MB-231): 1.46 ± 0.07 µM; IC50 ([2]; Homo sapiens, DU-145): 1.09 ± 0.02 µM; potency relative to MPA, DU145 ([2]; fold vs MPA): three-fold higher potency than MPA; IC50 ([3]; Homo sapiens, U-87 MG): 3.35 ± 0.09 µM; potency relative to MPA, U87 MG ([3]; fold vs MPA): three-fold more active than MPA; viability [4]: 65%
		57.4 ± 1.02	COc1c(C)c2c(c(O)c1C/C=C(\C)CCC(=O)NCc1ccncc1)C(=O)OC2 [Compound 21]	
	0.6 ± 0.13	73.4 ± 3.62	COc1c(C)c2c(c(O)c1C/C=C(\C)CCC(=O)NCc1ccc(C)cc1)C(=O)OC2 [Compound 19]	
		36 ± 3.86	COc1c(C)c2c(c(O)c1C/C=C(\C)CCC(=O)NCCN1CCOCC1)C(=O)OC2 [Compound 26]	
		30.8 ± 2.82	COc1cccc(NC(=O)CC/C(C)=C/Cc2c(O)c3c(c(C)c2OC)COC3=O)c1 [Compound 27, (E)-6–(4-hydroxy-6-methoxy-7-methyl-3-oxo-1,3-dihydroisobenzofuran-5-yl)-N-(3-methoxyphenyl)-4-methylhex-4-enamide]	
73.94 ± 2.84	0.82 ± 0.32	> 70	COc1c(C)c2c(c(O)c1C/C=C(\C)CCC(=O)N[C@H](C)c1ccccc1)C(=O)OC2 [Compound 15]	
72.04 ± 1.11	0.73 ± 0.06	> 70	COc1c(C)c2c(c(O)c1C/C=C(\C)CCC(=O)NCc1ccccc1Cl)C(=O)OC2 [Compound 16]	
